For 26 molecules, IC50 and Ki results are on record in patent US10988477B2 (Merck Patent GmbH, priority 2018, dated 2021).

As usually defined, the IC50 is the concentration that inhibits the measured activity by half. Lower therefore signals higher potency. The Ki is a dissociation constant, usually derived from enzyme kinetics or from competition with a known ligand. A lower Ki goes with tighter binding.

Each structure is given as a SMILES string. A value given as a limit tells only on which side of the number the result lay.

The target of test [1] is intracellular GCN2 (phosphorylation of the GCN2 substrate eIF2α) (Homo sapiens, UniProt Q9P2K8). The test is described as follows: GCN2 cellular inhibition assay (AlphaScreen SureFire P-eIF2α Ser51, borrelidin-treated U2OS cells). The format is cell-based. The settings on record: compounds of Formula II; biomarker assay, phosphorylated eIF2α Ser51 in borrelidin-treated U2OS cells. In short, it runs like this:
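First, U2OS cells are plated and left overnight at 37 °C. Next, compounds (from 40 μM final, 4-fold steps) and 10 μM borrelidin are added for 1 h, cells lysed, and phospho-Ser51 eIF2α detected by AlphaScreen bead sandwich. Inhibition is computed versus borrelidin-only wells.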

In test [2] the target is GCN2 kinase (Homo sapiens, UniProt Q9P2K8). The test is described as follows: GCN2 enzyme inhibition assay (Transcreener ADP2 fluorescence polarization). The following applies: compounds of Formula II; 280 μM ATP, 4 nM GCN2 kinase. The format is biochemical. In a few lines: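 ADP formation read by Transcreener FP after a 1 h, 25 °C kinase reaction containing 280 μM ATP, 200 μM (RS)7 substrate and 4 nM GCN2, pH 7.5 Tris buffer. Compounds (0–8 μM final) were added 10 min before ATP. Percent inhibition gave IC50 and apparent Ki via tight-binding fit.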
(In general: In fluorescence polarisation assays a small probe gives low polarisation when free and higher when bound to something large.)

intracellular GCN2 (phosphorylation of the GCN2 substrate eIF2α), sequence (Q9P2K8 whole entry): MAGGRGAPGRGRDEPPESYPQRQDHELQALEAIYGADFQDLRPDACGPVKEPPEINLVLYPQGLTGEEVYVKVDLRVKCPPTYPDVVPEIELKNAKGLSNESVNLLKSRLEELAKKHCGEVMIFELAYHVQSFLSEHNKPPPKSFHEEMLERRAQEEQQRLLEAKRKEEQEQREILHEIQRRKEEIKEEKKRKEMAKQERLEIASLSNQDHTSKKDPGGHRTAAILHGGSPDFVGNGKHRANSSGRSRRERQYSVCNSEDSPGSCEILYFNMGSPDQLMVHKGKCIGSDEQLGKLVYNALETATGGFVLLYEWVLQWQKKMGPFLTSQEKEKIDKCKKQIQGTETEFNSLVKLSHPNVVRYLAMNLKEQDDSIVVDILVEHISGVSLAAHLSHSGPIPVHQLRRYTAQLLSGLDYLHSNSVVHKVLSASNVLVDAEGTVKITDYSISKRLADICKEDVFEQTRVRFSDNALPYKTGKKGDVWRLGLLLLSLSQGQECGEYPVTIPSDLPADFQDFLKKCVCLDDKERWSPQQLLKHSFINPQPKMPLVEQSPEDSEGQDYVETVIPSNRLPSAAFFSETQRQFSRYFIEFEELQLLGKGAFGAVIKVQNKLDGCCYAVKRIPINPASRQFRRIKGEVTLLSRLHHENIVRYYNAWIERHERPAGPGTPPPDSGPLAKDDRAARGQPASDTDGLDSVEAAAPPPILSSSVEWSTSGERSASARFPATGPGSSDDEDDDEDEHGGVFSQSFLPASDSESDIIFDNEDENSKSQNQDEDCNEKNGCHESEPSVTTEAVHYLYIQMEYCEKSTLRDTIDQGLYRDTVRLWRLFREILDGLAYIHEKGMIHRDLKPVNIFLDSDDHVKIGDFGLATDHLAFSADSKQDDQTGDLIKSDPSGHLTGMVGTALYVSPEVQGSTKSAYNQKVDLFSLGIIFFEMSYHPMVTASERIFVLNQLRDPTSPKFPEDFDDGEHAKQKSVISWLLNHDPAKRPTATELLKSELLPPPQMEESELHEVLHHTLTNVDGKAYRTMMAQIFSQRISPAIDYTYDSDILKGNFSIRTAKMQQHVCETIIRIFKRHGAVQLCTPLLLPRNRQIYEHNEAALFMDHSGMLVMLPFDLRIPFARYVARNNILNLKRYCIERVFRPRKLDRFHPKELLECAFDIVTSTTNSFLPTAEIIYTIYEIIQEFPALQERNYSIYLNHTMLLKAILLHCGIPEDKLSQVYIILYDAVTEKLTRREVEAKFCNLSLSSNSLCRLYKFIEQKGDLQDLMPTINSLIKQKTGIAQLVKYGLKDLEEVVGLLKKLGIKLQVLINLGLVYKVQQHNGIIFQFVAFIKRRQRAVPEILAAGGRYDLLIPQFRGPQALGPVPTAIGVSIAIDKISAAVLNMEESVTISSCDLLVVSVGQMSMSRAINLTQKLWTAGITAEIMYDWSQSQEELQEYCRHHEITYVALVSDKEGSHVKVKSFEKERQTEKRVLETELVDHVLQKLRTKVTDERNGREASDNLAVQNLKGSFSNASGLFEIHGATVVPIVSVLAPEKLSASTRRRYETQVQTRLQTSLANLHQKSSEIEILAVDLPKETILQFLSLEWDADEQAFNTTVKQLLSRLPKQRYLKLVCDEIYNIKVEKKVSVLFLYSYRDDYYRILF
GCN2 kinase, sequence (Q9P2K8 whole entry): as above

In turn, `CS(=O)(=O)N1CCC2(CCCCN2c2cc(-c3cnc4ccc(C(F)F)nn34)ncn2)C1` (stereo not shown) [II-256, 6-(6-(6-(Difluoromethyl)imidazo[1,2-b]pyridazin-3-yl)pyrimidin-4-yl)-2-(methylsulfonyl)-2,6-diazaspiro[4.5]decane] came in with an IC50 in test [1] of more than 5000 nM. Moreover, in test [2], the Ki lay in the range of 10 to 1000 nM.
`CC1(C)CN(c2cc(-c3cnc4ccc(C(F)F)nn34)ncn2)C[C@H](CNS(C)(=O)=O)O1` [II-257, (R)—N-((4-(6-(6-(Difluoromethyl)imidazo[1,2-b]pyridazin-3-yl)pyrimidin-4-yl)-6,6-dimethylmorpholin-2-yl)methyl)methanesulfonamide] returned a half-maximal inhibitory concentration (IC50) in test [1] of 500 to 5000 nM. In test [2], this molecule registered an inhibition constant Ki of 10 to 1000 nM.
Taken in the same sequence, the figures for `CS(=O)(=O)NCC1CN(c2cc(-c3cnc4ccc(C(F)F)nn34)ncn2)CC(F)(F)C1` (stereo not shown) [II-258, N-((1-(6-(6-(Difluoromethyl)imidazo[1,2-b]pyridazin-3-yl)pyrimidin-4-yl)-5,5-difluoropiperidin-3-yl)methyl)methanesulfonamide] were less than 500 nM and less than 10 nM.
Molecule `CN(C)C1CN(c2cc(-c3cnc4ccc(C(F)F)nn34)ncn2)CC(CNS(C)(=O)=O)C1(F)F` (stereo not shown) [II-259, N-((1-(6-(6-(Difluoromethyl)imidazo[1,2-b]pyridazin-3-yl)pyrimidin-4-yl)-5-(dimethylamino)-4,4-difluoropiperidin-3-yl)methyl)methanesulfonamide] displayed an IC50 in test [1] of less than 500 nM. Also, the Ki in test [2] was less than 10 nM.
On to `CN(C)C1CN(c2cc(-c3cnc4ccc(C(F)F)nn34)ncn2)CC(CNS(C)(=O)=O)C1(F)F` (stereo not shown) [II-260, N-((1-(6-(6-(Difluoromethyl)imidazo[1,2-b]pyridazin-3-yl)pyrimidin-4-yl)-5-(dimethylamino)-4,4-difluoropiperidin-3-yl)methyl)methanesulfonamide], for which the IC50 in test [1] lay within 500 to 5000 nM. In test [2], this molecule yielded a Ki of 10 to 1000 nM.
Taken in the same sequence, the figures for `CC(=O)NCC1CCCN(c2cc(-c3cnc4ccc(C(F)F)nn34)ncn2)C1` (stereo not shown) [II-261, N-((1-(6-(6-(Difluoromethyl)imidazo[1,2-b]pyridazin-3-yl)pyrimidin-4-yl)piperidin-3-yl)methyl)acetamide] were 500 to 5000 nM and 10 to 1000 nM.
Taken in the same sequence, the figures for `O=S(=O)(NCC1CCCN(c2cc(-c3cnc4ccc(C(F)F)nn34)ncn2)C1)C1CC1` (stereo not shown) [II-262, N-((1-(6-(6-(Difluoromethyl)imidazo[1,2-b]pyridazin-3-yl)pyrimidin-4-yl)piperidin-3-yl)methyl)cyclopropanesulfonamide] were less than 500 nM and less than 10 nM.
As for `CCC1COC(CNS(C)(=O)=O)CN1c1cc(-c2cnc3ccc(C(F)F)nn23)ncn1` (stereo not shown) [II-267, N-((4-(6-(6-(Difluoromethyl)imidazo[1,2-b]pyridazin-3-yl)pyrimidin-4-yl)-5-ethylmorpholin-2-yl)methyl)methanesulfonamide], the IC50 in test [1] is 500 to 5000 nM. Besides, the inhibition constant Ki in test [2] fell in the range of 10 to 1000 nM.
Taken in the same sequence, the figures for `CC1CCC(CNS(C)(=O)=O)C(C)N1c1cc(-c2cnc3ccc(C(F)F)nn23)ncn1` (stereo not shown) [II-268, N-((1-(6-(6-(Difluoromethyl)imidazo[1,2-b]pyridazin-3-yl)pyrimidin-4-yl)-2,6-dimethylpiperidin-3-yl)methyl)methanesulfonamide] were less than 500 nM and less than 10 nM.
Taken in the same sequence, the figures for `C[C@H]1CN(c2cc(-c3cnc4ccc(C(F)F)nn34)ncc2F)C[C@@H](CNS(C)(=O)=O)C1(F)F` [II-270, N-[[(3S,5S)-1-[2-[6-(Difluoromethyl)imidazo[1,2-b]pyridazin-3-yl]-5-fluoro-4-pyridyl]-4,4-difluoro-5-methyl-3-piperidyl]methyl]methanesulfonamide] were 500 to 5000 nM and less than 10 nM.
Taken in the same sequence, the figures for `CC1CCC(CNS(C)(=O)=O)CN1c1cc(-c2cnc3ccc(C(F)F)nn23)ncc1F` (stereo not shown) [II-271, N-[[1-[2-[6-(Difluoromethyl)imidazo[1,2-b]pyridazin-3-yl]-5-fluoro-4-pyridyl]-6-methyl-3-piperidyl]methyl]methanesulfonamide] were 500 to 5000 nM and 10 to 1000 nM.
In the case of `O=S(=O)(NCC1CCCN(c2cc(-c3cnc4ccc(C(F)F)nn34)ncn2)C1)C1CNC1` (stereo not shown) [II-272, N-((1-(6-(6-(Difluoromethyl)imidazo[1,2-b]pyridazin-3-yl)pyrimidin-4-yl)piperidin-3-yl)methyl)azetidine-3-sulfonamide], in test [1], the IC50 was more than 5000 nM. In test [2], this molecule gave a Ki of 10 to 1000 nM.
Taken in the same sequence, the figures for `CS(=O)(=O)N1CC2(CN(c3cc(-c4cnc5ccc(C(F)F)nn45)ncn3)CCO2)C1` [II-273, 8-(6-(6-(Difluoromethyl)imidazo[1,2-b]pyridazin-3-yl)pyrimidin-4-yl)-2-(methylsulfonyl)-5-oxa-2,8-diazaspiro[3.5]nonane] were 500 to 5000 nM and 10 to 1000 nM.
In test [1], `FC(F)c1ccc2ncc(-c3cc(N4CCC5C(C4)C5(F)F)ncn3)n2n1` (stereo not shown) [II-274, 3-(6-(7,7-Difluoro-3-azabicyclo[4.1.0]heptan-3-yl)pyrimidin-4-yl)-6-(difluoromethyl)imidazo[1,2-b]pyridazine] yielded a 50% inhibitory concentration (IC50) of more than 5000 nM. Moreover, the Ki in test [2] fell in the range of 10 to 1000 nM.
Taken in the same sequence, the figures for `CS(=O)(=O)N1CCCC2(CN(c3cc(-c4cnc5ccc(C(F)F)nn45)ncn3)C2)C1` [II-279, 6-(Difluoromethyl)-3-(6-(6-(methylsulfonyl)-2,6-diazaspiro[3.5]nonan-2-yl)pyrimidin-4-yl)imidazo[1,2-b]pyridazine] were more than 5000 nM and 10 to 1000 nM.
Taken in the same sequence, the figures for `CS(=O)(=O)N1CCOC2(CN(c3cc(-c4cnc5ccc(C(F)F)nn45)ncn3)C2)C1` [II-280, 2-(6-(6-(Difluoromethyl)imidazo[1,2-b]pyridazin-3-yl)pyrimidin-4-yl)-8-(methylsulfonyl)-5-oxa-2,8-diazaspiro[3.5]nonane] were more than 5000 nM and 10 to 1000 nM.
In turn, `CS(=O)(=O)N1CC2(CCCN(c3cc(-c4cnc5ccc(C(F)F)nn45)ncn3)C2)C1` [II-281, 6-(Difluoromethyl)-3-(6-(2-(methylsulfonyl)-2,6-diazaspiro[3.5]nonan-6-yl)pyrimidin-4-yl)imidazo[1,2-b]pyridazine] gave a 50% inhibitory concentration (IC50) in test [1] of less than 500 nM. The molecule further yielded a Ki in test [2] of less than 10 nM.
Taken in the same sequence, the figures for `CS(=O)(=O)N1CC2CCN(c3cc(-c4cnc5ccc(C(F)F)nn45)ncn3)C2C1` (stereo not shown) [II-282, 6-(Difluoromethyl)-3-(6-(5-(methylsulfonyl)hexahydropyrrolo[3,4-b]pyrrol-1 (2H)-yl)pyrimidin-4-yl)imidazo[1,2-b]pyridazine] were more than 5000 nM and 10 to 1000 nM.
In turn, `NS(=O)(=O)CCC1CCCCN1c1cc(-c2cnc3ccc(C(F)F)nn23)ncn1` (stereo not shown) [II-283, 2-(1-(6-(6-(Difluoromethyl)imidazo[1,2-b]pyridazin-3-yl)pyrimidin-4-yl)piperidin-2-yl)ethane-1-sulfonamide] came in with a half-maximal inhibitory concentration (IC50) in test [1] of more than 5000 nM. The molecule also gave a Ki in test [2] of 10 to 1000 nM.
Taken in the same sequence, the figures for `NS(=O)(=O)N1CCCC2(CN(c3cc(-c4cnc5ccc(C(F)F)nn45)ncn3)C2)C1` [II-284, 2-(6-(6-(Difluoromethyl)imidazo[1,2-b]pyridazin-3-yl)pyrimidin-4-yl)-2,6-diazaspiro[3.5]nonane-6-sulfonamide] were more than 5000 nM and 10 to 1000 nM.
With `NS(=O)(=O)N1CCOC2(CN(c3cc(-c4cnc5ccc(C(F)F)nn45)ncn3)C2)C1` [II-285, 2-(6-(6-(Difluoromethyl)imidazo[1,2-b]pyridazin-3-yl)pyrimidin-4-yl)-5-oxa-2,8-diazaspiro[3.5]nonane-8-sulfonamide], the IC50 in test [1] was more than 5000 nM. In addition, the Ki in test [2] was in the range of 10 to 1000 nM.
In test [1], `NS(=O)(=O)N1CC2CCN(c3cc(-c4cnc5ccc(C(F)F)nn45)ncn3)C2C1` (stereo not shown) [II-286, 1-(6-(6-(Difluoromethyl)imidazo[1,2-b]pyridazin-3-yl)pyrimidin-4-yl)hexahydropyrrolo[3,4-b]pyrrole-5(1H)-sulfonamide] returned a half-maximal inhibitory concentration (IC50) of more than 5000 nM. The molecule also yielded a Ki in test [2] of 10 to 1000 nM.
Taken in the same sequence, the figures for `CS(=O)(=O)N1CCC2(CC1)CN(c1cc(-c3cnc4ccc(C(F)F)nn34)ncn1)CCO2` [II-287, 4-(6-(6-(Difluoromethyl)imidazo[1,2-b]pyridazin-3-yl)pyrimidin-4-yl)-9-(methylsulfonyl)-1-oxa-4,9-diazaspiro[5.5]undecane] were more than 5000 nM and 10 to 1000 nM.
Turning to `CS(=O)(=O)N1CCCC2(CN(c3cc(-c4cnc5ccc(C(F)F)nn45)ncn3)CCO2)C1` (stereo not shown) [II-288, 4-(6-(6-(Difluoromethyl)imidazo[1,2-b]pyridazin-3-yl)pyrimidin-4-yl)-8-(methylsulfonyl)-1-oxa-4,8-diazaspiro[5.5]undecane], the IC50 in test [1] was more than 5000 nM. Also, the Ki in test [2] was in the range of 10 to 1000 nM.
Taken in the same sequence, the figures for `O=S(=O)(NCC1CCCN(c2cc(-c3cnc4ccc(C(F)F)nn34)ncn2)C1)C1COC1` (stereo not shown) [II-289, N-((1-(6-(6-(Difluoromethyl)imidazo[1,2-b]pyridazin-3-yl)pyrimidin-4-yl)piperidin-3-yl)methyl)oxetane-3-sulfonamide] were 500 to 5000 nM and 10 to 1000 nM.
Taken in the same sequence, the figures for `CN(C[C@@H]1CN(c2cc(-c3cnc4ccc(C(F)F)nn34)ncn2)CCO1)S(C)(=O)=O` [II-290, (S)—N-((4-(6-(6-(Difluoromethyl)imidazo[1,2-b]pyridazin-3-yl)pyrimidin-4-yl)morpholin-2-yl)methyl)-N-methylmethanesulfonamide] were 500 to 5000 nM and 10 to 1000 nM.
